Reference: patent US7604978B2, “Inhibition of biofilm formation” (Sequoia Sciences, Inc., priority 2004, dated 2009)

Columns and labels:
E. coli JM109 genes = assay: DNA microarray, genes induced by asiatic acid; type: cell-based; conditions: M9C glucose media
Experimental: The same amount of ethanol was supplemented to eliminate solvent effects. The cultures were grown to an OD600 of 0.9. The cells were centrifuged in a microcentrifuge for 15 seconds at 20,000×g in mini bead beater tubes (Biospec, Bartlesville, Okla.) that were cooled to -80° C. before sampling. The cell pellets were flash frozen in a dry ice-ethanol bath and stored at -80° C. until RNA isolation. To lyse the cells, 1.0 mL RLT buffer (Qiagen, Inc., Valencia, Calif.) and 0.2 mL 0.1 mm zirconia/silica beads (Biospec) were added to the frozen bead beater tubes containing the cell pellets. The tubes were closed tightly and beat for 30 seconds at the maximum speed in a mini bead beater (cat. no. 3110BX, Biospec). The total RNA was isolated by following the protocol of the RNeasy Mini Kit (Qiagen) including an on-column DNase digestion with RNase-free DNase I (Qiagen). OD260 was used to quantify the RNA yield. OD260/OD280 and […]/16S rRNA were measured using a 2100 Bioanalyzer (Agilent Technologies, Palo Alto, Calif.) to check the purity and integrity of RNA (RNeasy Mini handbook, Qiagen). The E. coli DNA microarrays were prepared as described previously by Wei, Y. et al (Journal of Bacteriology, 2001, 183 (2) p. 545-556). […] The double-strand PCR products were denatured in 50% dimethyl sulfoxide and spotted onto aminosilane slides (Full Moon Biosystems, Sunnyvale, Calif.) as probes to hybridize with the mRNA-derived cDNA samples. It has been shown that each array can detect 4228 of the 4290 E. coli ORFs. Each gene has two spots per slide. Briefly, the total RNA from the E. coli K12 samples grown with and without ursolic acid was first converted into labeled cDNA. […] The Cy3-labeled sample without ursolic acid and the Cy5-labeled ursolic acid sample (with 10 or 30 μg/mL ursolic acid) were hybridized on the first slide. Similarly, the Cy5-labeled sample without ursolic acid and the Cy3-labeled ursolic acid sample were hybridized on the second slide. Since each gene has two spots on a slide, the two hybridizations generated eight data points for each gene (four points for the sample without ursolic acid and four points for the ursolic acid sample). The microarray experiments with dye-swapping were repeated for both concentrations of ursolic acid. […] The arrays were rinsed with double-distilled water and were spun dry by centrifugation. Labeled cDNA (6 μg) was concentrated to 10 μl of total volume and was mixed with 10 μl of 4×cDNA hybridization solution (Full Moon Biosystems) and 20 μl of formamide (EM Science, Gibbstown, N.J.). The hybridization mix was heated to 95° C. for 2 min and was added to the DNA microarrays; each array was covered with a coverslip (Corning, Big Flats, N.Y.) and was incubated overnight at 37° C. for hybridization. When the hybridization was finished, the coverslips were removed in 1×SSC-0.1% SDS at room temperature, and the arrays were washed once for 5 min in 1×SSC-0.1% SDS at 40° C., twice for 10 min in 0.1×SSC-0.1% SDS at 40° C., and twice for 1 min in 0.1×SSC at 40° C. The arrays were quickly rinsed by dipping in room-temperature double-distilled water and were then spun dry by centrifugation. The hybridized slides were scanned with the Generation III Array Scanner (Molecular Dynamics Corp.). Readings at 570 and 670 nm was used to quantify the probes labeled with Cy3 and Cy5 separately. The signal was quantified with Array Vision 4.0 or 6.0 software (Imaging Research, St. Catherines, Ontario, Canada). […] P-values were calculated on log-transformed, normalized intensities. Including the p-value criterion ensures the reliability of the induced/repressed gene list. Normalization was relative to the median total fluorescent intensity per slide per channel. Example 3 was repeated, except asiatic acid ([…]) was added instead of ursolic acid.

E. coli JM109 = assay: Biofilm inhibition by asiatic acid; type: cell-based; conditions: Escherichia coli, JM 109, E. coli JM109, MC9 glucose media
Experimental: Inhibition of biofilm formation by E. coli K12 [R1drd19], P. aeruginosa PAO1, and V harveyi BB120 by the addition of 10 μg/mL ursolic acid. For E. coli K12 [R1drd19], data were collected 16 hours after addition of ursolic acid to a 24 hour biofilm in LB medium; for P. aeruginosa PAO1, data were collected 18 hours after addition of ursolic acid with inoculation in LB medium plus 1% sodium citrate; and for V. harveyi BB120, data were collected 18 hours after addition of ursolic acid with inoculation in M9 medium. All biofilm mass readings at OD540 were normalized based on the reading of wild type without ursolic acid which was normalized to 1. One standard deviation is shown.
Example 1 was repeated, except asiatic acid was added with inoculation in E. coli JM109 in MC9 glucose media.

## C[C@H]1[C@H](C)CC[C@]2(C(=O)O)CC[C@]3(C)C(=CC[C@@H]4[C@@]5(C)C[C@@H](O)[C@H](O)[C@@](C)(CO)[C@@H]5CC[C@]43C)[C@H]12 [asiatic acid]
E. coli JM109 genes; 10 μg/mL asiatic acid
  ER (expression ratio) gene b0829: 2.83
  ER (expression ratio) gene b1729: 2.64
  ER (expression ratio) gene b1963: 2.14
  ER (expression ratio) gene b2332: 2.14
  ER (expression ratio) gene b2420: 4.29
  ER (expression ratio) gene b2531: 2.46
  ER (expression ratio) gene b2670: 3.25
  ER (expression ratio) gene b2834: 2.30
  ER (expression ratio) gene bolA: 2.30
  ER (expression ratio) gene cbl: 13.93
  ER (expression ratio) gene cysA: 4.00
  ER (expression ratio) gene cysB: 6.06
  ER (expression ratio) gene cysC: 10.56
  ER (expression ratio) gene cysD: 6.96
  ER (expression ratio) gene cysH: 4.59
  ER (expression ratio) gene cysI: 4.29
  ER (expression ratio) gene cysJ: 3.73
  ER (expression ratio) gene cysK: 4.59
  ER (expression ratio) gene cysM: 3.73
  ER (expression ratio) gene cysN: 11.31
  ER (expression ratio) gene cysP: 4.29
  ER (expression ratio) gene cysU: 4.92
  ER (expression ratio) gene cysW: 4.59
  ER (expression ratio) gene dgt: 2.14
  ER (expression ratio) gene fliY: 4.00
  ER (expression ratio) gene ftn: 3.25
  ER (expression ratio) gene glgS: 2.14
  ER (expression ratio) gene iIvG_1: 2.83
  ER (expression ratio) gene iIvL: 2.30
  ER (expression ratio) gene msrA: 2.30
  ER (expression ratio) gene nlpA: 18.38
  ER (expression ratio) gene pssR: 2.46
  ER (expression ratio) gene pstS: 2.64
  ER (expression ratio) gene sbp: 18.38
  ER (expression ratio) gene tauA: 2.46
  ER (expression ratio) gene yaeG: 4.59
  ER (expression ratio) gene yaiB: 2.30
  ER (expression ratio) gene ybgR: 2.46
  ER (expression ratio) gene ybiK: 6.50
  ER (expression ratio) gene yciW: 3.03
  ER (expression ratio) gene yedO: 3.73
  ER (expression ratio) gene yeeD: 3.73
  ER (expression ratio) gene yeeE: 3.25
  ER (expression ratio) gene ygbE: 6.96
  ER (expression ratio) gene yicG: 2.83
  ER (expression ratio) gene yicL: 6.50
  ER (expression ratio) gene yjaE: 2.00
  ER (expression ratio) gene yjiD: 7.46
  ER (expression ratio) gene yrbL: 2.64
E. coli JM109 genes; 30 μg/mL asiatic acid
  ER (expression ratio) gene b0829: 2.46
  ER (expression ratio) gene b1729: 2.30
  ER (expression ratio) gene b1963: 2.30
  ER (expression ratio) gene b2332: 2.30
  ER (expression ratio) gene b2420: 2.14
  ER (expression ratio) gene b2531: 2.14
  ER (expression ratio) gene b2670: 2.64
  ER (expression ratio) gene b2834: 2.00
  ER (expression ratio) gene bolA: 2.64
  ER (expression ratio) gene cbl: 13.00
  ER (expression ratio) gene cysA: 3.48
  ER (expression ratio) gene cysB: 4.29
  ER (expression ratio) gene cysC: 6.96
  ER (expression ratio) gene cysD: 6.50
  ER (expression ratio) gene cysH: 3.03
  ER (expression ratio) gene cysI: 3.25
  ER (expression ratio) gene cysJ: 4.00
  ER (expression ratio) gene cysK: 3.48
  ER (expression ratio) gene cysM: 3.25
  ER (expression ratio) gene cysN: 7.46
  ER (expression ratio) gene cysP: 4.92
  ER (expression ratio) gene cysU: 4.92
  ER (expression ratio) gene cysW: 4.00
  ER (expression ratio) gene dgt: 2.30
  ER (expression ratio) gene fliY: 3.25
  ER (expression ratio) gene ftn: 3.03
  ER (expression ratio) gene glgS: 2.30
  ER (expression ratio) gene iIvG_1: 2.00
  ER (expression ratio) gene iIvL: 3.48
  ER (expression ratio) gene msrA: 2.64
  ER (expression ratio) gene nlpA: 9.85
  ER (expression ratio) gene pssR: 2.14
  ER (expression ratio) gene pstS: 2.00
  ER (expression ratio) gene sbp: 12.13
  ER (expression ratio) gene tauA: 2.00
  ER (expression ratio) gene yaeG: 4.00
  ER (expression ratio) gene yaiB: 2.64
  ER (expression ratio) gene ybgR: 2.46
  ER (expression ratio) gene ybiK: 5.66
  ER (expression ratio) gene yciW: 3.73
  ER (expression ratio) gene yedO: 2.83
  ER (expression ratio) gene yeeD: 2.30
  ER (expression ratio) gene yeeE: 2.14
  ER (expression ratio) gene ygbE: 5.28
  ER (expression ratio) gene yicG: 2.30
  ER (expression ratio) gene yicL: 2.83
  ER (expression ratio) gene yjaE: 2.14
  ER (expression ratio) gene yjiD: 9.85
  ER (expression ratio) gene yrbL: 2.46
E. coli JM109; 5 μg/ml
  inhibition at 5 µg/mL: ~75%
E. coli JM109; 10 μg/ml
  inhibition at 10 µg/mL: ~80%
E. coli JM109; 15 μg/ml
  inhibition at 15 µg/mL: ~85%
